Target: T1, human V1a receptor (Homo sapiens, UniProt P37288)
T1 construct: expressed in transfected cells; host or cells: HEK293 cells, transiently transfected; cell membranes
Assay: human V1a receptor binding (3H-Vasopressin SPA, membranes of transfected HEK293 cells)
Conditions: HEK293 cell membranes, Ki by Cheng-Prussoff equation, read-out: pKi hV1a (converted)
Description: The human V1a receptor was cloned by RT-PCR from total human liver RNA. The coding sequence was subcloned in an expression vector after sequencing to confirm the identity of the amplified sequence. […] Cell membranes were prepared from HEK293 cells transiently transfected with the expression vector and grown in 20 liter fermenters with the following protocol.
50 g of cells are resuspended in 30 ml freshly prepared ice cold Lysis buffer (50 mM HEPES, 1 mM EDTA, 10 mM MgCl2 adjusted to pH=7.4+complete cocktail of protease inhibitor (Roche Diagnostics)). Homogenized with Polytron for 1 min and sonicated on ice for 2×2 minutes at 80% intensity (Vibracell sonicator). The preparation is centrifuged 20 min at 500 g at 4° C., the pellet is discarded and the supernatant centrifuged 1 hour at 43′000 g at 4° C. (19,000 rpm). The pellet is resuspended in 12.5 ml Lysis buffer+12.5 ml Sucrose 20% and homogenized using a Polytron for 1-2 min. The protein concentration is determined by the Bradford method and aliquots are stored at −80° C. until use. For binding studies 60 mg Yttrium silicate SPA beads (Amersham) are mixed with an aliquot of membrane in binding buffer (50 mM Tris, 120 mM NaCl, 5 mM KCl, 2 mM CaCl2, 10 mM MgCl2) for 15 minutes with mixing. 50 μl of bead/membrane mixture is then added to each well of a 96 well plate, followed by 50 μl of 4 nM 3H-Vasopressin (American Radiolabeled Chemicals). For total binding measurement 100 μl of binding buffer are added to the respective wells, for non-specific binding 100 μl of […] cold vasopressin and for compound testing 100 μl of a serial dilution of each compound in 2% DMSO. The plate is incubated 1 h at room temperature, centrifuged 1 min at 1000 g and counted on a Packard Top-Count. Non-specific binding counts are subtracted from each well and data is normalized to the maximum specific binding set at 100%. To calculate an IC 50 the curve is fitted using a non-linear regression model (XLfit) and the Ki is calculated using the Cheng-Prussoff equation.

T1 sequence (P37288 whole entry): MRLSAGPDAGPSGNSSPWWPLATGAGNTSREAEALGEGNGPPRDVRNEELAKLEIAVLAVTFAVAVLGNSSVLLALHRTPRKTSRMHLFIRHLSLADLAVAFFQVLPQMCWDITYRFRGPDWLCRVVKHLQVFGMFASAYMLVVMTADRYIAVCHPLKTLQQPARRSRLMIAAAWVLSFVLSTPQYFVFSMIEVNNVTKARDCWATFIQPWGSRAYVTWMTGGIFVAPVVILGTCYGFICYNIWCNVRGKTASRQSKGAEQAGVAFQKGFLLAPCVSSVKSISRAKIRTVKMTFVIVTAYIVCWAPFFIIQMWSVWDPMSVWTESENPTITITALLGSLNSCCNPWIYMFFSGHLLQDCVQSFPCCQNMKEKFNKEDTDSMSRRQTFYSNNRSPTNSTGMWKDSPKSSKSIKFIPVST

| SMILES | Ki [nM] |
| --- | --- |
| Fc1cccnc1[C@H]1CC[C@H](c2nnc3n2-c2ccc(Cl)cc2COC3)CC1 [Example 1] | 2.4 |
| Clc1ccc2c(c1)COCc1nnc([C@H]3CC[C@H](c4noc5ccccc54)CC3)n1-2 [Example 2, 1-(4-Benzo[d]isoxazol-3-yl-cyclohexyl)-8-chloro-4H,6H-5-oxa-2,3,10b-triaza-benzo[e]azulene] | 7.41 |
| Clc1ccc2c(c1)COCc1nnc([C@H]3CC[C@H](c4nsc5ccccc54)CC3)n1-2 [Example 3, 1-(4-Benzo[d]isothiazol-3-yl-cyclohexyl)-8-chloro-4H,6H-5-oxa-2,3,10b-triaza-benzo[e]azulene] | 0.288 |
| Cc1cc([C@H]2CC[C@H](c3nnc4n3-c3ccc(Cl)cc3COC4)CC2)no1 [Example 4, 8-Chloro-1-[4-(5-methyl-isoxazol-3-yl)-cyclohexyl]-4H,6H-5-oxa-2,3,10b-triaza-benzo[e]azulene] | 3.98 |
| Clc1ccc2c(c1)COCc1nnc([C@H]3CC[C@H](c4onc5c4CCCC5)CC3)n1-2 [Example 5, 8-Chloro-1-[4-(4,5,6,7-tetrahydro-benzo[c]isoxazol-3-yl)-cyclohexyl]-4H,6H-5-oxa-2,3,10b-triaza-benzo[e]azulene] | 15.5 |
| CC(C)C[C@H]1CC[C@H](c2nnc3n2-c2ccc(Cl)cc2COC3)CC1 [Example 9, 8-Chloro-1-(4-isobutyl-cyclohexyl)-4H,6H-oxa-2,3,10b-triaza-benzo[e]azulene] | 25.7 |

Results, then the molecule that gave them:

| Ki [nM] | SMILES |
| --- | --- |
| 4.9 | Clc1ccc2c(c1)COCc1nnc([C@H]3CC[C@H](c4n[nH]c5c4CCCC5)CC3)n1-2 [Example 6, 8-Chloro-1-[4-(4,5,6,7-tetrahydro-1H-indazol-3-yl)-cyclohexyl]-4H,6H-5-oxa-2,3,10b-triaza-benzo[e]azulene] |
| 32.4 | Cc1nc([C@H]2CC[C@H](c3nnc4n3-c3ccc(Cl)cc3COC4)CC2)no1 [Example 7, 8-Chloro-1-[4-(5-methyl-[1,2,4]oxadiazol-3-yl)-cyclohexyl]-4H,6H-5-oxa-2,3,10b-triaza-benzo[e]azulene] |
| 2.4 | FC(F)(C1CCCC1)[C@H]1CC[C@H](c2nnc3n2-c2ccc(Cl)cc2COC3)CC1 [Example 8, 8-Chloro-1-[4-(cyclopentyl-difluoro-methyl)-cyclohexyl]-4H,6H-5-oxa-2,3,10b-triaza-benzo[e]azulene] |
